The text below walks through data of PubChem BioAssay AID330 (DTP/NCI, 2004).

In the assay the test system is P388 leukemia ip, CD2F1 mice, survival T/C. Description: NCI In Vivo Anticancer Drug Screen. Data for tumor model P388 Leukemia (intraperitoneal) in CD2F1 (CDF1) mice. The settings on record: endpoint: median survival time, higher = longer survival. The essentials:
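Mice carrying the transplanted tumor received test compound or vehicle. Survival was recorded in each group, and the value is the treated-group measurement divided by that of the vehicle-treated control group.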

The mark [1] stands for this setting: dose: 60.0 mg/kg/injection, schedule: Q01DX005 (ip), vehicle: Klucel (hydroxypropylcellulose) (HPC).
Where [2] appears, read: dose: 120.0 mg/kg/injection, schedule: Q01DX005 (ip), vehicle: Klucel (hydroxypropylcellulose) (HPC).
Where [3] appears, read: dose: 240.0 mg/kg/injection, schedule: Q01DX005 (ip), vehicle: Klucel (hydroxypropylcellulose) (HPC).
The mark [4] stands for this setting: dose: 50.0 mg/kg/injection, schedule: Q01DX005 (ip), vehicle: saline with Tween-80.
[5] abbreviates: dose: 50.0 mg/kg/injection, schedule: Q01DX005 (ip), vehicle: Klucel (hydroxypropylcellulose) (HPC).
Setting [6] is: dose: 100.0 mg/kg/injection, schedule: Q01DX005 (ip), vehicle: Klucel (hydroxypropylcellulose) (HPC).
[7] abbreviates: dose: 100.0 mg/kg/injection, schedule: Q01DX005 (ip), vehicle: saline with Tween-80.
Where [8] appears, read: dose: 200.0 mg/kg/injection, schedule: Q01DX005 (ip), vehicle: saline with Tween-80.
The mark [9] stands for this setting: dose: 100.0 mg/kg/injection, schedule: Q04DX003 (ip), vehicle: saline with Tween-80.
Setting [10] is: dose: 200.0 mg/kg/injection, schedule: Q04DX003 (ip), vehicle: saline with Tween-80.
Where [11] appears, read: dose: 400.0 mg/kg/injection, schedule: Q04DX003 (ip), vehicle: saline with Tween-80.

“And” between values parts separate entries of the source, which are not always exact repeats. Equal entries are not always repeated. Inconclusive results and toxic doses are left out.

In the case of `Cn1c(=O)oc2ccc(Br)cc21`, the T/C is 104 % of control (dose: 100.0 mg/kg/injection, schedule: Q04DX002 (ip), vehicle: Klucel (hydroxypropylcellulose) (HPC)); 104 % of control (dose: 200.0 mg/kg/injection, schedule: Q04DX002 (ip), vehicle: Klucel (hydroxypropylcellulose) (HPC)); 100 % of control (dose: 400.0 mg/kg/injection, schedule: Q04DX002 (ip), vehicle: Klucel (hydroxypropylcellulose) (HPC)).

`CC(C)(C)OC(=O)CS(=O)(=O)Nc1ccccc1O`: the T/C was 106 % of control under setting [1], 86 % of control under setting [2] and 97 % of control under setting [3].

As to `CN1C(=O)N(C)C2(C(=O)N(C)C(=O)N2C)N(C)C1=O`, the T/C runs as follows: under setting [1], 99 % of control and 102 % of control; under setting [2], 96 % of control; under setting [3], 98 % of control and 105 % of control.

For `CN(C)CCNc1ccc(CO)c2sc3ccccc3c(=O)c12`, the T/C was 93 % of control and 94 % of control (dose: 25.0 mg/kg/injection, schedule: Q01DX005 (ip), vehicle: saline with Tween-80); 101 % of control and 114 % of control under setting [4].

For the compound `CC(=O)/C(C)=C/C(=O)O`, the T/C is 100 % of control (dose: 25.0 mg/kg/injection, schedule: Q01DX009 (ip), vehicle: saline); 104 % of control (dose: 25.0 mg/kg/injection, schedule: Q04DX003 (ip), vehicle: saline); 100 % of control (dose: 50.0 mg/kg/injection, schedule: Q01DX009 (ip), vehicle: saline); 122 % of control (dose: 50.0 mg/kg/injection, schedule: Q04DX003 (ip), vehicle: saline); 109 % of control (dose: 100.0 mg/kg/injection, schedule: Q01DX009 (ip), vehicle: saline); 100 % of control (dose: 100.0 mg/kg/injection, schedule: Q04DX003 (ip), vehicle: saline).

`Cc1cccc(Nc2ncnc3nc[nH]c23)c1`: the T/C was 100 % of control under setting [5]; 91 % of control under setting [6]; 94 % of control (dose: 200.0 mg/kg/injection, schedule: Q01DX005 (ip), vehicle: Klucel (hydroxypropylcellulose) (HPC)).

As for `Cc1nn(C)c(=O)[nH]c1=O`, the T/C by setting is: under setting [4], 103 % of control; under setting [7], 106 % of control; under setting [8], 106 % of control.

In the case of `[O-]c1nn(Cc2ccccc2)c2cccc[n+]12`, the T/C (dose: 100.0 mg/kg/injection, schedule: Q04DX002 (ip), vehicle: saline) was 103 % of control; the T/C (dose: 200.0 mg/kg/injection, schedule: Q04DX002 (ip), vehicle: saline) is 99 % of control; the T/C (dose: 400.0 mg/kg/injection, schedule: Q04DX002 (ip), vehicle: saline) is 100 % of control.

On to `O=c1c(-c2ccccc2)cc2c(-c3ccccc3)oc(-c3ccccc3)c2cc1-c1ccccc1`, for which the T/C (dose: 50.0 mg/kg/injection, schedule: Q04DX002 (ip), vehicle: saline with Tween-80) was 90 % of control; the T/C (dose: 100.0 mg/kg/injection, schedule: Q04DX002 (ip), vehicle: saline with Tween-80) is 94 % of control; the T/C (dose: 200.0 mg/kg/injection, schedule: Q04DX002 (ip), vehicle: saline with Tween-80) was 92 % of control.

Consider `CN(C)CCOc1cccc(NC2=C(Cl)C(=O)C(Nc3cccc(OCCN(C)C)c3)=C(Cl)C2=O)c1`, for which the T/C is 100 % of control and 107 % of control (dose: 1.56 mg/kg/injection, schedule: Q01DX005 (ip), vehicle: Klucel (hydroxypropylcellulose) (HPC)); 107 % of control and 96 % of control (dose: 3.12 mg/kg/injection, schedule: Q01DX005 (ip), vehicle: Klucel (hydroxypropylcellulose) (HPC)); 104 % of control and 122 % of control and 97 % of control (dose: 6.25 mg/kg/injection, schedule: Q01DX005 (ip), vehicle: Klucel (hydroxypropylcellulose) (HPC)).

Take `CC(=O)C(N=Nc1ccc(S(=O)(=O)Nc2ncccn2)cc1)C(C)=O`: the T/C was 92 % of control under setting [9], 88 % of control under setting [10] and 90 % of control under setting [11].

Regarding `C1=CC2C3CCC(C3)C2C1` (centres undefined), the T/C reads like this: under setting [9], 113 % of control; under setting [10], 100 % of control; under setting [11], 104 % of control.

Consider `Cc1cc(NCCCCCCCNc2cc(C)nc3cc(N)ccc23)c2ccc(N)cc2n1`, for which the T/C was 165 % of control (dose: 1.56 mg/kg/injection, schedule: Q01DX009 (ip), vehicle: other); 158 % of control (dose: 3.13 mg/kg/injection, schedule: Q01DX009 (ip), vehicle: other); 186 % of control and 196 % of control (dose: 6.25 mg/kg/injection, schedule: Q01DX009 (ip), vehicle: other); 157 % of control and 186 % of control (dose: 12.5 mg/kg/injection, schedule: Q01DX009 (ip), vehicle: other).

With `Nc1nc(N)c2cc([N+](=O)[O-])ccc2n1`, the T/C is, setting by setting: (dose: 60.0 mg/kg/injection, schedule: Q01DX005 (ip), vehicle: saline with Tween-80) 93 % of control; (dose: 120.0 mg/kg/injection, schedule: Q01DX005 (ip), vehicle: saline with Tween-80) 94 % of control; (dose: 240.0 mg/kg/injection, schedule: Q01DX005 (ip), vehicle: saline with Tween-80) 96 % of control.

With `CCOP(=O)(O)OCC`, the T/C (dose: 100.0 mg/kg/injection, schedule: Q04DX003 (ip), vehicle: Klucel (hydroxypropylcellulose) (HPC)) is 93 % of control; the T/C (dose: 200.0 mg/kg/injection, schedule: Q04DX003 (ip), vehicle: Klucel (hydroxypropylcellulose) (HPC)) was 89 % of control; the T/C (dose: 400.0 mg/kg/injection, schedule: Q04DX003 (ip), vehicle: Klucel (hydroxypropylcellulose) (HPC)) is 96 % of control.

With `CCS/C(C#N)=C/c1ccccc1`, the T/C is 109 % of control (dose: 50.0 mg/kg/injection, schedule: Q01DX009 (ip), vehicle: saline with Tween-80) and 115 % of control (dose: 100.0 mg/kg/injection, schedule: Q01DX009 (ip), vehicle: saline with Tween-80).

Regarding `COCC1(C)CCCC2(C)C1CCC13CCC(O)CC12O3` (centres undefined), the T/C (dose: 100.0 mg/kg/injection, schedule: Q01DX001 (ip), vehicle: saline) is 105 % of control; the T/C (dose: 200.0 mg/kg/injection, schedule: Q01DX001 (ip), vehicle: saline) was 105 % of control; the T/C (dose: 400.0 mg/kg/injection, schedule: Q01DX001 (ip), vehicle: saline) was 103 % of control.

Turning to `COc1ccc(C(c2cc3c(cc2O)OCO3)N2CCCC2)c(OC)c1` (centres undefined), the T/C under setting [1] is 111 % of control and the T/C under setting [2] was 118 % of control.

For the compound `Cc1cccc2c(=O)n3c(cc12)-c1[nH]c2ccccc2c1CC3`, the T/C under setting [1] was 103 % of control, the T/C under setting [2] was 97 % of control and the T/C under setting [3] was 96 % of control.

In the case of `C1CN1CN1CC1`, the T/C was 102 % of control under setting [5] and 99 % of control under setting [6].

On to `CC(=O)C1(C)CCOC1=O` (centres undefined), for which the T/C was 100 % of control under setting [4], 100 % of control under setting [7] and 109 % of control under setting [8].

Turning to `COC(=O)C(CCC1NCCc2c1[nH]c1ccccc21)(Sc1ccccc1)Sc1ccccc1` (centres undefined), the T/C is, setting by setting: under setting [1], 108 % of control; under setting [2], 105 % of control; under setting [3], 103 % of control.

As for `CSCCCNCc1ccccc1`, the T/C (dose: 50.0 mg/kg/injection, schedule: Q01DX005 (ip), vehicle: saline) was 100 % of control and the T/C (dose: 100.0 mg/kg/injection, schedule: Q01DX005 (ip), vehicle: saline) was 106 % of control.

On to `Nc1cc2nc3ccccc3nc2cc1O`, for which the T/C is 90 % of control under setting [4], 90 % of control under setting [7] and 90 % of control under setting [8].

On to `C/C=C/C[P+](Cc1ccccc1)(c1ccccc1)c1ccccc1`, for which the T/C runs as follows: (dose: 0.78 mg/kg/injection, schedule: Q01DX009 (ip), vehicle: saline) 105 % of control; (dose: 1.56 mg/kg/injection, schedule: Q01DX009 (ip), vehicle: saline) 113 % of control; (dose: 3.13 mg/kg/injection, schedule: Q01DX009 (ip), vehicle: saline) 107 % of control.
